Holding throughout (type): biochemical
One assay deals with VZV polymerase (Varicella-zoster virus, UniProt P09252). The assay can be described thus: VZV polymerase assay (Table 1).
Another assay has as its target T1, HCMV polymerase (Human cytomegalovirus, UniProt P08546).
T1 construct: made in house; host or cells: recombinant baculovirus-infected SF-9 cells
Briefly: HCMV polymerase scintillation proximity assay (modified version). Particulars: modified SPA assay, compounds diluted in 100% DMSO, 4.5 mM DTT. On the procedure:
The HCMV polymerase assay is performed using a scintillation proximity assay (SPA) as described in several references, such as N. D. Cook, et al., Pharmaceutical Manufacturing International, pages 49-53 (1992); K. Takeuchi, Laboratory Practice, September issue (1992); U.S. Pat. No. 4,568,649 (1986); which are incorporated by reference herein. Reactions are performed in 96-well plates. The assay is conducted in 100 μl volume with 5.4 mM HEPES (pH 7.5), 11.7 mM KCl, 4.5 mM MgCl2, 0.36 mg/ml BSA, and 90 nM ^3H-dTTP. Assays are run with and without CHAPS, (3-[(3-cholamidopropyl)-dimethylammonio]-1-propane-sulfonate) at a final concentration of 2 mM. HCMV polymerase is diluted in enzyme dilution buffer containing 50% glycerol, 250 mM NaCl, 10 mM HEPES (pH 7.5), 100 μg/ml BSA, and 0.01% sodium azide. […] Plates are incubated 10 min. at 37° C., then equilibrated to room temperature, and counted on a Packard Topcount. Linear regressions are performed and IC50's are calculated using computer software.
A modified version of the above HCMV polymerase assay is performed as described above, but with the following changes: Compounds are diluted in 100% DMSO until final dilution into assay buffer. […] In Table 1, the term “nd” refers to activity data not determined.

The next assay has as its target HSV polymerase (Human herpesvirus 1, UniProt P04293). Briefly: HSV polymerase assay (Table 1).

T1 sequence (P08546 whole entry): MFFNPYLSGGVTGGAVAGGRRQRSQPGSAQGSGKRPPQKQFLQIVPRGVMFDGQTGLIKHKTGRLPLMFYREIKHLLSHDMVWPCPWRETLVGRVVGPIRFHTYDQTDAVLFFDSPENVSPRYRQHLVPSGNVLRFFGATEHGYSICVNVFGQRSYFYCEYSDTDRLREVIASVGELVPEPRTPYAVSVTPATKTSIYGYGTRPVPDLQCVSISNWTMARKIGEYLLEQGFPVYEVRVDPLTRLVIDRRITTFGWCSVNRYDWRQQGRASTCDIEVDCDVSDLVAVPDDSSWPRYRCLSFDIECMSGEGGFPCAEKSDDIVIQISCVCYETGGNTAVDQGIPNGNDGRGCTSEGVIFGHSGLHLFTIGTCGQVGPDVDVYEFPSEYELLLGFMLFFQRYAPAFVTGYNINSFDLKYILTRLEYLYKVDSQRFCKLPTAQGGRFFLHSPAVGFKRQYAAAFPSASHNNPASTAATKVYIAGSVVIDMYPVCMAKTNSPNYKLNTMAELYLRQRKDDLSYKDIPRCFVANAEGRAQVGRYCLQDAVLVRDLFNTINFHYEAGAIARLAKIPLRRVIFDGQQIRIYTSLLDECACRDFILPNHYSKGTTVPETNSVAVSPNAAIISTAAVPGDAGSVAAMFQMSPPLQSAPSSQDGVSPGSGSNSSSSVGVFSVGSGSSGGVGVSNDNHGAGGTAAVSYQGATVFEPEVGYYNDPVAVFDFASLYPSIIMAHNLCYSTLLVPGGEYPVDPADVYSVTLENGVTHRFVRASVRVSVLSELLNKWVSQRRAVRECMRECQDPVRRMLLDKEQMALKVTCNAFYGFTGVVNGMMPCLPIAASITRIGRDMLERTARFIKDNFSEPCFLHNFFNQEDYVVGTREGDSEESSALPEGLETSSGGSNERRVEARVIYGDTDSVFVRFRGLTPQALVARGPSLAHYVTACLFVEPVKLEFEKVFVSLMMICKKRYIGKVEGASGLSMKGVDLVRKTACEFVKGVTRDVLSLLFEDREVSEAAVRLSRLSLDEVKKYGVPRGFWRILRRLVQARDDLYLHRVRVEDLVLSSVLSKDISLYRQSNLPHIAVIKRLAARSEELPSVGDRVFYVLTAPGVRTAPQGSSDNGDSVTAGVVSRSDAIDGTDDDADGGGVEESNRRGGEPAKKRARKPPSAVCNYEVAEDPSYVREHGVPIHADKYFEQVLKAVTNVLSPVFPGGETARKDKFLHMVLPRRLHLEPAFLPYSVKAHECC
HSV polymerase, sequence (P04293 whole entry): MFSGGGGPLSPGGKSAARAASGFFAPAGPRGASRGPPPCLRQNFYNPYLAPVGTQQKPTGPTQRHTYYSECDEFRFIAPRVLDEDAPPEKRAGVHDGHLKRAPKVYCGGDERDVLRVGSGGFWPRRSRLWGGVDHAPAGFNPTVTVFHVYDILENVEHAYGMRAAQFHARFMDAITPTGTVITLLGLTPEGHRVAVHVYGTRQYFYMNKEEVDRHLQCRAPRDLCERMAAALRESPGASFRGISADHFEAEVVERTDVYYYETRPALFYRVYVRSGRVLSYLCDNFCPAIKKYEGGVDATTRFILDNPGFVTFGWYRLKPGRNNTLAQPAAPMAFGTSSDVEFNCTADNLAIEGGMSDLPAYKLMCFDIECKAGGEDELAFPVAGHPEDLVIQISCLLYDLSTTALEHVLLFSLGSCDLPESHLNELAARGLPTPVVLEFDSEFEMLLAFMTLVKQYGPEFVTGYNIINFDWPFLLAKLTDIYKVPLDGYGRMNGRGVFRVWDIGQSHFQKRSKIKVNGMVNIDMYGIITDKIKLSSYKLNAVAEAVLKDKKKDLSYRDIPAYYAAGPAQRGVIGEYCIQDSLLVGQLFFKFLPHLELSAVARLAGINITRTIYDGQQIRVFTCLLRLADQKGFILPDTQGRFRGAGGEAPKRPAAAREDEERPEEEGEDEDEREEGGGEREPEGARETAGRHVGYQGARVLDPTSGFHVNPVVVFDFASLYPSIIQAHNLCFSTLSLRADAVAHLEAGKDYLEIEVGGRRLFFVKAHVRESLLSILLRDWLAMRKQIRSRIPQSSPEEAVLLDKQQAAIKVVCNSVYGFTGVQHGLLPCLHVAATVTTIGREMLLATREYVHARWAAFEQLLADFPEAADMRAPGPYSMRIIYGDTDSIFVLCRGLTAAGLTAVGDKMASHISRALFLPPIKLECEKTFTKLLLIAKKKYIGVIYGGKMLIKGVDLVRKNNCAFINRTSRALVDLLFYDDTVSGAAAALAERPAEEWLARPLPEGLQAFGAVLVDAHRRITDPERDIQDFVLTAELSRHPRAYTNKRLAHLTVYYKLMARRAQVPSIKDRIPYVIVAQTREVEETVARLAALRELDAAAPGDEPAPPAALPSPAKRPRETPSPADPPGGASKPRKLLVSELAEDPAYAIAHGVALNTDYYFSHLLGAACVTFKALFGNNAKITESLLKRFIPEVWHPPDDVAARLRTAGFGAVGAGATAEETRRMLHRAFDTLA
VZV polymerase, sequence (P09252 whole entry): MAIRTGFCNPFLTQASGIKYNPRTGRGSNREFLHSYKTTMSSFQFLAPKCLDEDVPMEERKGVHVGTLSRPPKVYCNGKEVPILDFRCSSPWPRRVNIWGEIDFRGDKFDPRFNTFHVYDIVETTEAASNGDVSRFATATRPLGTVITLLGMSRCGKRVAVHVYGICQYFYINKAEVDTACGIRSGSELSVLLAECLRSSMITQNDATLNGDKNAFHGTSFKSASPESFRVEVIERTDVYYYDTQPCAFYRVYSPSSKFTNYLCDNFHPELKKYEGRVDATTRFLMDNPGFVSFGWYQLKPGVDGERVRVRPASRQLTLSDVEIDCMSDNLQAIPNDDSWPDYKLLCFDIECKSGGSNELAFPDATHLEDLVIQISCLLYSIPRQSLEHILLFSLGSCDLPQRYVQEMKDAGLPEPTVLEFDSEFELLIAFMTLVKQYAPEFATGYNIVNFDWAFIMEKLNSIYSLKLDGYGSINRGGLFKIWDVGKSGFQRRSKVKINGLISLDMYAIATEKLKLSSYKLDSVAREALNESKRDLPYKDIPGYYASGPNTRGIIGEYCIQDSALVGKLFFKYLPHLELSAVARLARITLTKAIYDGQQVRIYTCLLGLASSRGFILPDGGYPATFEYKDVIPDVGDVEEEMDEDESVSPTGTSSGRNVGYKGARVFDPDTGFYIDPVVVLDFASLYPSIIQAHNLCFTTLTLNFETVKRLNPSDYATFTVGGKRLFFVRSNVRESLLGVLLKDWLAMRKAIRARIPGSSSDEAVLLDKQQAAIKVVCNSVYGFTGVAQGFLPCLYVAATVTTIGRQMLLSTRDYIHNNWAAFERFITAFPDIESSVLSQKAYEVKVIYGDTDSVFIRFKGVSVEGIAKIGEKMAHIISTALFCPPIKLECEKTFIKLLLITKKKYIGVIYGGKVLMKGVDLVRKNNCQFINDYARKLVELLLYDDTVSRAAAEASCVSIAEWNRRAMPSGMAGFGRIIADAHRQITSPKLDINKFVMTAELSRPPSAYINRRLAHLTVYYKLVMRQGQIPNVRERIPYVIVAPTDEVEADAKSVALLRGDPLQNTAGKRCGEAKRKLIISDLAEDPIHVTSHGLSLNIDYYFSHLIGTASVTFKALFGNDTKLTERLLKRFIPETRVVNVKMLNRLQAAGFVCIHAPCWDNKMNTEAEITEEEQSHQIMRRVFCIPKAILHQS

`Cn1cc(C(=S)NCc2ccc(Cl)cc2)c(=S)c2cc(CN3CCOCC3)sc21` [Example 1, N-(4-Chlorobenzyl)-7-methyl-2-(4-morpholinylmethyl)-4-thioxo-4,7-dihydrothieno[2,3-b]pyridine-5-carbothioamide]: the IC50 is 130 nM against VZV polymerase, 910 nM on HCMV polymerase and 360 nM on HSV polymerase.

These data come from patent publication US6924283B2, “4-thioxo-4,7-dihydro-thieno[2,3-b]pyridine-5-carbothioamides as antiviral agents” (Pfizer, priority 2001, dated 2005).
